Results taken from patent US20250235460A1, “COMBINATION THERAPY USING GLUCOSE-DEPENDENT INSULINOTROPIC POLYPEPTIDE RECEPTOR ANTAGONIST COMPOUNDS AND GLP-1 RECEPTOR AGONIST COMPOUNDS” (Pfizer Inc., priority 2024, published 2025).

Target: human GLP-1R (Homo sapiens, UniProt P43220, G168S)
Assay: CHO GLP-1R Clone H6 cAMP HTRF agonist assay (Assay 1, high receptor density)
Format: cell-based
Conditions: for EC50: CHO GLP-1R clone H6, cAMP HTRF, geometric mean; for Emax: CHO GLP-1R clone H6, arithmetic mean, relative to saturating GLP-1 (1 μM), read-out: Assay 1 Emax (%)
In short: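 Replicate runs were pooled. Potencies were averaged geometrically and maximal efficacies arithmetically, then rounded to two significant figures.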

Sequence of human GLP-1R (P43220 24-463 G168S): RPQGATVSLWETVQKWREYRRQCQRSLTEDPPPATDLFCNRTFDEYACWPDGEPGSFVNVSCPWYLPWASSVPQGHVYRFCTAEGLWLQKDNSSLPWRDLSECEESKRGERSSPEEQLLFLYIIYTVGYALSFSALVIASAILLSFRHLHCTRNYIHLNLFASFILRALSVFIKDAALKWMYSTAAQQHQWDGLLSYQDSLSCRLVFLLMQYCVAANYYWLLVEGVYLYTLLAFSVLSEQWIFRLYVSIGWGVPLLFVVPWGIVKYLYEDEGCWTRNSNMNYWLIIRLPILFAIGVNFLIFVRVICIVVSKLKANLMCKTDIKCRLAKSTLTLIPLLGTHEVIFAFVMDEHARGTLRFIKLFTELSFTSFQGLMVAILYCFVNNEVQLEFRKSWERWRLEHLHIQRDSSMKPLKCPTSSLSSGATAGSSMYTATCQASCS

SMILES	EC50 [nM]	Emax [%]
COCCCn1c(CN2CCC(c3cccc(OCc4ccc(Cl)cc4F)n3)CC2)nc2ccc(C(=O)O)cc21 [Compound 313B, 2-[(4-{6-[(4-chloro-2-fluorobenzyl)oxy]pyridin-2-yl}piperidin-1-yl)methyl]-1-(3-methoxypropyl)-1H-benzimidazole-6-carboxylic acid]	380	75
CCn1ccnc1Cn1c(CN2CCC(c3cccc(OCc4ccc(Cl)cc4F)n3)CC2)nc2ccc(C(=O)O)cc21 [Compound 314B, 2-[(4-{6-[(4-chloro-2-fluorobenzyl)oxy]pyridin-2-yl}piperidin-1-yl)methyl]-1-[(1-ethyl-1H-imidazol-2-yl)methyl]-1H-benzimidazole-6-carboxylic acid]	390	69
O=C(O)c1ccc2nc(CN3CCC(c4cccc(OCc5ccc(Cl)cc5F)n4)CC3)n(CC3CCCOC3)c2c1 (centres unmarked) [Compound 315B, 2-[(4-{6-[(4-chloro-2-fluorobenzyl)oxy]pyridin-2-yl}piperidin-1-yl)methyl]-1-(tetrahydro-2H-pyran-3-ylmethyl)-1H-benzimidazole-6-carboxylic acid]	440	86
CN1CC(Cn2c(CN3CCC(c4cccc(OCc5ccc(Cl)cc5F)n4)CC3)nc3ccc(C(=O)O)cc32)CC1=O (centres unmarked) [Compound 317B, 2-[(4-{6-[(4-chloro-2-fluorobenzyl)oxy]pyridin-2-yl}piperidin-1-yl)methyl]-1-[(1-methyl-5-oxopyrrolidin-3-yl)methyl]-1H-benzimidazole-6-carboxylic acid]	500	69
Cn1cc(Cn2c(CN3CCC(c4cccc(OCc5ccc(Cl)cc5F)n4)CC3)nc3ccc(C(=O)O)cc32)cn1 [Compound 318B, 2-[(4-{6-[(4-chloro-2-fluorobenzyl)oxy]pyridin-2-yl}piperidin-1-yl)methyl]-1-[(1-methyl-1H-pyrazol-4-yl)methyl]-1H-benzimidazole-6-carboxylic acid]	520	–
Cn1cc(CCn2c(CN3CCC(c4cccc(OCc5ccc(Cl)cc5F)n4)CC3)nc3ccc(C(=O)O)cc32)nn1 [Compound 319B, 2-[(4-{6-[(4-chloro-2-fluorobenzyl)oxy]pyridin-2-yl}piperidin-1-yl)methyl]-1-[2-(1-methyl-1H-1,2,3-triazol-4-yl)ethyl]-1H-benzimidazole-6-carboxylicacid]	1100	47
COC[C@H](C)n1c(CN2CCC(c3cccc(OCc4ccc(Cl)cc4F)n3)CC2)nc2ccc(C(=O)O)cc21 [Compound 320B, 2-[(4-{6-[(4-chloro-2-fluorobenzyl)oxy]pyridin-2-yl}piperidin-1-yl)methyl]-1-[(2S)-1-methoxypropan-2-yl]-1H-benzimidazole-6-carboxylic acid]	1100	65
COC[C@@H](C)n1c(CN2CCC(c3cccc(OCc4ccc(Cl)cc4F)n3)CC2)nc2ccc(C(=O)O)cc21 [Compound 321B, 2-[(4-{6-[(4-chloro-2-fluorobenzyl)oxy]pyridin-2-yl}piperidin-1-yl)methyl]-1-[(2R)-1-methoxypropan-2-yl]-1H-benzimidazole-6-carboxylic acid]	1100	81
Cc1cc(Cn2c(CN3CCC(c4cccc(OCc5ccc(Cl)cc5F)n4)CC3)nc3ccc(C(=O)O)cc32)on1 [Compound 322B, 2-[(4-{6-[(4-chloro-2-fluorobenzyl)oxy]pyridin-2-yl}piperidin-1-yl)methyl]-1-[(3-methyl-1,2-oxazol-5-yl)methyl]-1H-benzimidazole-6-carboxylic acid]	1400	97
O=C(O)c1ccc2nc(CN3CCC(c4cccc(OCc5ccc(Cl)cc5F)n4)CC3)n(CC3CCCCO3)c2c1 (centres unmarked) [Compound 323B, 2-[(4-{6-[(4-chloro-2-fluorobenzyl)oxy]pyridin-2-yl}piperidin-1-yl)methyl]-1-(tetrahydro-2H-pyran-2-ylmethyl)-1H-benzimidazole-6-carboxylic acid]	1600	80
O=C(O)c1ccc2nc(CN3CCC(c4cccc(OCc5ccc(Cl)cc5F)n4)CC3)n(CC3CCOCC3)c2c1 [Compound 324B, 2-[(4-{6-[(4-chloro-2-fluorobenzyl)oxy]pyridin-2-yl}piperidin-1-yl)methyl]-1-(tetrahydro-2H-pyran-4-ylmethyl)-1H-benzimidazole-6-carboxylic acid]	1900	79
O=C(O)c1ccc2nc(CN3CCC(c4cccc(OCc5ccc(Cl)cc5F)n4)CC3)n(CCN3CCOCC3)c2c1 [Compound 325B, 2-[(4-{6-[(4-chloro-2-fluorobenzyl)oxy]pyridin-2-yl}piperidin-1-yl)methyl]-1-[2-(morpholin-4-yl)ethyl]-1H-benzimidazole-6-carboxylic acid]	2200	87
O=C(O)c1ccc2nc(CN3CCC(c4cccc(OCc5ccc(Cl)cc5F)n4)CC3)n(CC3CC(F)(F)C3)c2c1 [Compound 326B, 2-[(4-{6-[(4-chloro-2-fluorobenzyl)oxy]pyridin-2-yl}piperidin-1-yl)methyl]-1-[(3,3-difluorocyclobutyl)methyl]-1H-benzimidazole-6-carboxylic acid]	2500	71
CC(c1nncn1C)n1c(CN2CCC(c3cccc(OCc4ccc(Cl)cc4F)n3)CC2)nc2ccc(C(=O)O)cc21 (centres unmarked) [Compound 327B, 2-[(4-{6-[(4-chloro-2-fluorobenzyl)oxy]pyridin-2-yl}piperidin-1-yl)methyl]-1-[1-(4-methyl-4H-1,2,4-triazol-3-yl)ethyl]-1H-benzimidazole-6-carboxylic acid]	2900	88
Cn1cnnc1CCn1c(CN2CCC(c3cccc(OCc4ccc(Cl)cc4F)n3)CC2)nc2ccc(C(=O)O)cc21 [Compound 328B, 2-[(4-{6-[(4-chloro-2-fluorobenzyl)oxy]pyridin-2-yl}piperidin-1-yl)methyl]-1-[2-(4-methyl-4H-1,2,4-triazol-3-yl)ethyl]-1H-benzimidazole-6-carboxylic acid]	3100	51
CCN1CCC[C@@H]1Cn1c(CN2CCC(c3cccc(OCc4ccc(Cl)cc4F)n3)CC2)nc2ccc(C(=O)O)cc21 [Compound 329B, 2-[(4-{6-[(4-chloro-2-fluorobenzyl)oxy]pyridin-2-yl}piperidin-1-yl)methyl]-1-{[(2R)-1-ethylpyrrolidin-2-yl]methyl}-1H-benzimidazole-6-carboxylic acid]	4000	91
Cc1nc(Cn2c(CN3CCC(c4cccc(OCc5ccc(Cl)cc5F)n4)CC3)nc3ccc(C(=O)O)cc32)c(C)o1 [Compound 330B, 2-[(4-{6-[(4-chloro-2-fluorobenzyl)oxy]pyridin-2-yl}piperidin-1-yl)methyl]-1-[(2,5-dimethyl-1,3-oxazol-4-yl)methyl]-1H-benzimidazole-6-carboxylic acid]	9300	100
COCc1cc(Cn2c(CN3CCC(c4cccc(OCc5ccc(Cl)cc5F)n4)CC3)nc3ccc(C(=O)O)cc32)[nH]n1 [Compound 337B, 2-[(4-{6-[(4-chloro-2-fluorobenzyl)oxy]pyridin-2-yl}piperidin-1-yl)methyl]-1-{[3-(methoxymethyl)-1H-pyrazol-5-yl]methyl}-1H-benzimidazole-6-carboxylic acid]	560	72
